20 molecules from patent US9045445B2, “Glycine transporter-1 inhibitors, methods of making them, and uses thereof” (Albany Molecular Research, Inc., priority 2010, dated 2015) can be followed below.

Usually IC50 stands for the concentration at which inhibition is half-maximal.

In assay [1] the target is T1, glycine transporter-1 (GlyT-1) (Homo sapiens, UniProt P48067).
T1 construct: JAR cells (ATCC#HTB-144), which endogenously express GlyT-1; host or cells: JAR human choriocarcinoma cells
T1 sequence (P48067 1-706): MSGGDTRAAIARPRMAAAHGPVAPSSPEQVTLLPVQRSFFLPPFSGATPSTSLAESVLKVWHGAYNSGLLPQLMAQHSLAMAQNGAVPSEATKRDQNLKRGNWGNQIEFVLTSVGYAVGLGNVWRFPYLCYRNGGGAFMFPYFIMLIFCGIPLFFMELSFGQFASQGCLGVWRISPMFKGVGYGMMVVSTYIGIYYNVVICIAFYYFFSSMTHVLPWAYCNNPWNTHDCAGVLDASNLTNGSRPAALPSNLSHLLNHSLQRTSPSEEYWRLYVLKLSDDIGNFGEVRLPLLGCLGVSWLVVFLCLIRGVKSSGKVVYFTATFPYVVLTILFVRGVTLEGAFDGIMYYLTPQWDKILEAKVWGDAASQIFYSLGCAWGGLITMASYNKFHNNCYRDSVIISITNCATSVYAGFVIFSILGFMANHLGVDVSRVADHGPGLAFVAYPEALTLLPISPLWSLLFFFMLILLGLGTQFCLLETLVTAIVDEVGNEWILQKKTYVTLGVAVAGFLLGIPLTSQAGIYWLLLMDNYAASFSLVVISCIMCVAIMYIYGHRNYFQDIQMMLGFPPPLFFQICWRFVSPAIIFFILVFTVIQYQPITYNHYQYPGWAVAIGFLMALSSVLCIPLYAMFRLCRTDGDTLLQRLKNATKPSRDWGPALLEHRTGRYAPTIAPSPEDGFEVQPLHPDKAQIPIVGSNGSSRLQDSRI
Put plainly: [14C]glycine uptake assay in JAR cells endogenously expressing GlyT-1 (scintillation proximity). In kind it is cell-based. As to conditions: JAR cells, [14C]glycine 5 μM, 3 hour incubation; read-out: GlyT-1 IC50. The method in brief: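 Human choriocarcinoma JAR cells (endogenous GlyT-1) attached overnight, then pre-incubated 10 min at room temperature with compound in pH 7.4 Hepes uptake buffer containing 5 mM alanine and 0.75% DMSO. Uptake of 5 μM [14C]glycine over 3 h at 37 °C read by scintillation proximity; IC50 from four-parameter fit of nine-point curves.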
(SPA uses beads or plates that emit light when radiolabelled molecules are held near them.)

Assay [2] deals with T2, glycine transporter-2 (GlyT-2) (Homo sapiens, UniProt Q9Y345).
T2 construct: expressed in transfected cells
T2 sequence (Q9Y345 1-797): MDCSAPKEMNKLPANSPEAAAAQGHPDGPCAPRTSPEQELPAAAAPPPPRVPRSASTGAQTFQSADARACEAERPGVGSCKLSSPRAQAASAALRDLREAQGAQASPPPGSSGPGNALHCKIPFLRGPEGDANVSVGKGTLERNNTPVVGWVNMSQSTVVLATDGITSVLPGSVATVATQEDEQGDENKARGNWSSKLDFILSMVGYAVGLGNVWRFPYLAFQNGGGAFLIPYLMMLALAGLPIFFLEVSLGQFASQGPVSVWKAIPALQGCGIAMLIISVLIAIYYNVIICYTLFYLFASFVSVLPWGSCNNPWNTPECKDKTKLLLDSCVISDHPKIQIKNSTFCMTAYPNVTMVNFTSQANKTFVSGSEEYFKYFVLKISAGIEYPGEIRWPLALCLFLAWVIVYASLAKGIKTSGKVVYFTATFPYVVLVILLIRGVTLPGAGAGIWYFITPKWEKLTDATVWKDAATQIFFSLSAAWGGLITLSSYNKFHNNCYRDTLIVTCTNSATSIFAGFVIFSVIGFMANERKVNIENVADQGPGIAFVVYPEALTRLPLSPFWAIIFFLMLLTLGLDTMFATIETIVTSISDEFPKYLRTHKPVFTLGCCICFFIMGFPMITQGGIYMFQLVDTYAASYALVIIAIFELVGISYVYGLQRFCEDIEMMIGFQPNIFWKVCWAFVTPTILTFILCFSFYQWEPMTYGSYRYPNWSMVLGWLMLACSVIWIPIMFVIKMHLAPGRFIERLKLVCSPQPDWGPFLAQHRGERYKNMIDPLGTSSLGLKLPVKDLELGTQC
Description: [14C]glycine uptake assay in HEK-GlyT-2 transfected cells. The format is cell-based. As to conditions: HEK-GlyT-2 cells.

Structures are written as SMILES. Counter-ions that a name gives are not always drawn.

Take `CCCS(=O)(=O)N1CCN(C2(CNC(=O)c3c(OC)cc(F)cc3SC)CCOCC2)CC1` [compound 122, 4-Fluoro-2-methoxy-6-(methylthio)-N-((4-(4-(propylsulfonyl)piperazin-1-yl)tetrahydro-2H-pyran-4-yl)methyl)benzamide Hydrochloride]: the figures for the concentration for half-maximal inhibition (IC50) in assay [1] and in assay [2] were 95 nM and greater than 75000 nM, respectively.

Take `CCCS(=O)(=O)N1CCN(C2(CNC(=O)c3ccc(F)cc3OC)CCCCC2)CC1` [compound 46, 4-Fluoro-2-methoxy-N-((1-(4-(propyl-sulfonyl)piperazin-1-yl)cyclohexyl)methyl) benzamide Hydrochloride]: the IC50 in assay [1] was 357 nM; in assay [2], greater than 75000 nM.

In the case of `Cn1cc(S(=O)(=O)N2CCN(C3(CNC(=O)c4ccc(Cl)cc4Cl)CCC(F)(F)CC3)CC2)nn1` [compound 228, 2,4-Dichloro-N-((4,4-difluoro-1-(4-(1-methyl-1H-l,2,3-triazol-4-ylsulfonyl)piperazin-1-yl)cyclohexyl)methyl) benzamide Hydrochloride], the results for the IC50 in assay [1] and in assay [2] were 1 nM and greater than 75000 nM, respectively.

Take `COc1cc(F)cc(SC)c1C(=O)NCC1(N2CCN(S(=O)(=O)c3cn(C)nn3)CC2)CCCC1` [compound 113, 4-Fluoro-2-methoxy-N-((1-(4-(1-methyl-1H-1,2,3-triazol-4-ylsulfonyl)piperazin-1-yl)cyclopentyl)methyl)-6-(methylthio)benzamide Hydrochloride]: the IC50 in assay [1] is 3 nM; in assay [2], greater than 75000 nM.

With `Cn1cc(S(=O)(=O)N2CCN(C3(CNC(=O)c4c(Cl)cccc4Cl)CCCC3)CC2)nn1` [compound 109, 2,6-Dichloro-N-((1-(4-(1-methyl-1H-l,2,3-triazol-4-ylsulfonyl)piperazin-1-yl)cyclopentyl)methyl) benzamide Hydrochloride], the IC50 in assay [1] is 31 nM; in assay [2], greater than 75000 nM.

With `CCCS(=O)(=O)N1CCN(C2(CNC(=O)c3c(C)cc(F)cc3OC)CCC(F)(F)CC2)CC1` [compound 137, N-((4,4-Difluoro-1-(4-(propylsulfonyl)piperazin-1-yl)cyclohexyl)methyl)-4-fluoro-2-methoxy-6-methylbenzamide Hydrochloride], the IC50 is 28 nM in assay [1] and greater than 75000 nM in assay [2].

Consider `Cc1cccc(C)c1C(=O)NCC1(N2CCN(S(=O)(=O)c3cn(C)cn3)CC2)CCCCC1` [compound 95, 2,6-Dimethyl-N-((1-(4-(1-methyl-1H-imidazol-4-ylsulfonyl)piperazin-1-yl)cyclohexyl)methyl) benzamide Hydrochloride], for which the IC50 in assay [1] was 1 nM; in assay [2] it was greater than 75000 nM.

`Cn1cnc(S(=O)(=O)N2CCN(C3(CNC(=O)c4c(F)cccc4F)CCCC3)CC2)c1` [compound 104, 2,6-Difluoro-N-((1-(4-(1-methyl-1H-imidazol-4-ylsulfonyl)piperazin-1-yl)cyclopentyl)methyl) benzamide Hydrochloride]: the 50% inhibitory concentration (IC50) in assay [1] was 346 nM; in assay [2], greater than 75000 nM.

On to `Cn1cc(S(=O)(=O)N2CCN(C3(CNC(=O)c4c(F)cc(F)cc4F)CCC(F)(F)CC3)CC2)nn1` [compound 234, N-((4,4-Difluoro-1-(4-(1-methyl-1H-1,2,3-triazol-4-ylsulfonyl)piperazin-1-yl)cyclohexyl)methyl)-2,4,6-trifluorobenzamide Hydrochloride], for which the half-maximal inhibitory concentration (IC50) is 4 nM in assay [1] and greater than 75000 nM in assay [2].

`CCCS(=O)(=O)N1CCN(C2(CNC(=O)c3ccc(OCc4ccccc4)cc3)CCCCC2)CC1` [compound 27, 4-(Benzyloxy)-N-((1-(4-(propylsulfonyl)piperazin-1-yl)cyclohexyl)methyl) benzamide Hydrochloride]: the IC50 in assay [1] stood at 549 nM; in assay [2], 635 nM.

Turning to `CCCS(=O)(=O)N1CCN(C2(CNC(=O)c3c(OC)cc(C(F)(F)F)cc3C(F)(F)F)CCCCCC2)CC1` [compound 70, 2-Methoxy-N-((1-(4-(propylsulfonyl)piperazin-1-yl)cycloheptyl)methyl)-4,6-bis(trifluoromethyl) benzamide Hydrochloride], the IC50 is 9 nM in assay [1] and greater than 75000 nM in assay [2].

Consider `CCCS(=O)(=O)N1CCN(C2(CNC(=O)c3ccc(F)cc3OC)CCCCCC2)CC1` [compound 52, 4-Fluoro-2-methoxy-N-((1-(4-(propylsulfonyl)piperazin-1-yl)cycloheptyl)methyl) benzamide Hydrochloride], for which the IC50 in assay [1] is 404 nM; in assay [2] it was greater than 75000 nM.

`CCCS(=O)(=O)N1CCN(C2(CNC(=O)c3ccc(Cl)cc3OC)CCCCC2)CC1` [compound 45, 4-Chloro-2-methoxy-N-((1-(4-(propyl-sulfonyl)piperazin-1-yl)cyclohexyl)methyl) benzamide Hydrochloride]: the IC50 in assay [1] is 322 nM; in assay [2] it was greater than 75000 nM.

`CCCS(=O)(=O)N1CCN(C2(CNC(=O)c3c(C)cc(Cl)cc3C)CCC(F)(F)CC2)CC1` [compound 266, 4-Chloro-N-((4,4-difluoro-1-(4-(propylsulfonyl)piperazin-1-yl)cyclohexyl)methyl)-2,6-dimethylbenzamide Hydrochloride]: the IC50 in assay [1] was 11 nM; in assay [2] it was greater than 75000 nM.

For `CCCS(=O)(=O)N1CCN(C2(CNC(=O)c3ccc(Cl)cc3Cl)CCCC2)CC1` [compound 72, 2,4-Dichloro-N-((1-(4-(propylsulfonyl)piperazin-1-yl)cyclopentyl)methyl) benzamide Hydrochloride], the values for the IC50 in assay [1] and in assay [2] were 171 nM and greater than 75000 nM, respectively.

With `CCCS(=O)(=O)N1CCN(C2(CNC(=O)c3ccccc3OC(F)(F)F)CCCCC2)CC1` [compound 4, N-((1-(4-(Propylsulfonyl)piperazin-1-yl)cyclohexyl)methyl)-2-(trifluoromethoxy) benzamide Hydrochloride], the concentration for half-maximal inhibition (IC50) was found to be 22 nM in assay [1] and 39100 nM in assay [2].

As for `Cc1cc(F)ccc1C(=O)NCC1(N2CCN(S(=O)(=O)CC3CC3)CC2)CCCCCC1` [compound 85, N-((1-(4-(Cyclopropylmethyl-sulfonyl)piperazin-1-yl)cycloheptyl)methyl)-4-fluoro-2-methylbenzamide Hydrochloride], the IC50 in assay [1] was 182 nM; in assay [2], greater than 75000 nM.

Regarding `CCCS(=O)(=O)N1CCN(C2(CNC(=O)c3cc(F)c(F)cc3Cl)CCC(F)(F)CC2)CC1` [compound 264, 2-Chloro-N-((4,4-difluoro-1-(4-(propylsulfonyl)piperazin-1-yl)cyclohexyl)methyl)-4,5-difluorobenzamide Hydrochloride], the IC50 was 48 nM in assay [1] and greater than 75000 nM in assay [2].

In the case of `CCCS(=O)(=O)N1CCN(C2(CNC(=O)c3c(F)cc(Cl)cc3F)CCCCCC2)CC1` [compound 51, 4-Chloro-2,6-difluoro-N-((1-(4-propylsulfonyl)piperazin-1-yl)cycloheptyl)methyl) benzamide Hydrochloride], the IC50 in assay [1] is 13 nM; in assay [2], greater than 75000 nM.

Consider `CCCS(=O)(=O)N1CCN(C2(CNC(=O)c3cc(Cl)ccc3Cl)CCCCC2)CC1` [compound 32, 2,5-Dichloro-N-((1-(4-(propylsulfonyl)piperazin-1-yl)cyclohexyl)methyl) benzamide Hydrochloride], for which the IC50 in assay [1] was 71 nM; in assay [2], greater than 75000 nM.
